According to paper PMC11352859, “Functionalized Congeners of 2H-Chromene P2Y6 Receptor Antagonists” (Cells, 2024):
Several values for one entry are separate records, joined by “and”; a condition that tells them apart may be missing. Identical values can stand only once. Like-named read-outs stand apart in the source and are kept apart here. One block for each compound: values may come before it.

Columns and labels:
hP2Y6R = target: T1, hP2Y6R (Homo sapiens, UniProt Q15077); assay: UDP (100 nM)-induced Ca2+ mobilization in hP2Y6R stably transfected 1321N1 astrocytoma cells; assay type: cell-based; conditions: UDP 100 nM; for IC50: 3–4 independent triplicate determinations
T1 construct: expressed in transfected cells
T1 sequence (Q15077 whole entry): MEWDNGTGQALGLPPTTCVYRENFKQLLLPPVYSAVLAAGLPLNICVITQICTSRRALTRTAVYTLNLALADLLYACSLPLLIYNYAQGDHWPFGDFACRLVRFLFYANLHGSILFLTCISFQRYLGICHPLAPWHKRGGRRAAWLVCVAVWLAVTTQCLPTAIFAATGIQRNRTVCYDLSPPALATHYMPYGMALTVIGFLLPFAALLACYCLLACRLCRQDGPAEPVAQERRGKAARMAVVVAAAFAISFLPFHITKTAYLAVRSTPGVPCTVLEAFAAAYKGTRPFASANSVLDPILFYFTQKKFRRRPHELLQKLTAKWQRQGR
Procedure: To screen for P2Y6R antagonist activity, PLC-mediated calcium mobilization assays were carried out using the recombinant human P2Y6R stably expressed in 1321N1 astrocytoma cells (hP2Y6R-1321N1) according to the previously published method. Briefly, the hP2Y6R-1321N1 cells were seeded on 96-well black plates and incubated overnight. The antagonists were pretreated along with the FLIPR dye (Calcium 6 assay kit, Molecular Devices, San Jose, CA, USA) containing 5 mM probenecid for 45 min, prior to agonist addition followed by an immediate intracellular Ca^2+ measurement. […] Here, probenecid was used as an organic anion transporter inhibitor to prevent the efflux of the dye into the extracellular environment. During incubation, the membrane permeable dye enters the cytoplasm and cleaves the acetoxymethyl protection to enable Ca^2+ binding. When the P2Y6R was activated by UDP, the increased calcium concentration was directly measured by intracellular changes in the fluorescence intensity with a Fluorescent Imaging Plate Reader (FLIPR^TETRA, Molecular Devices, San Jose, CA, USA).

α2A = target: T2, α2A (Homo sapiens, UniProt P08913); assay: PDSP binding assay, α2A; conditions: PDSP, mean, n = 2; read-out: Ki, α2A
T2 construct: NIMH Psychoactive Drug Screening Program (PDSP)
T2 sequence (P08913 1-465): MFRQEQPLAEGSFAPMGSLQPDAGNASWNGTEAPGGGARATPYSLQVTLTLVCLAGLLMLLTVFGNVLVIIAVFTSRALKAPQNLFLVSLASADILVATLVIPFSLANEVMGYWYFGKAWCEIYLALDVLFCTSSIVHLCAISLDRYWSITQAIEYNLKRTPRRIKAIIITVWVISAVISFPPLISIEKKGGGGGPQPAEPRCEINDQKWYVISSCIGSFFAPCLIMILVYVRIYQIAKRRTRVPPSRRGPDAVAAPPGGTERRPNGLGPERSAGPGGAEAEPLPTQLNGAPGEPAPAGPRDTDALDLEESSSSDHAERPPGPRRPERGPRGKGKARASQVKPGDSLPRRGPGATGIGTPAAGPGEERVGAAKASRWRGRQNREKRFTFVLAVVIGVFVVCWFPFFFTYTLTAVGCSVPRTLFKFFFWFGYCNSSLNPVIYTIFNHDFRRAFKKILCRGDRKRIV
From the text: (§1) Table S2. Off-target screening (to replace table later). We thank Dr. Bryan L. Roth (Univ. North Carolina at Chapel Hill) and National Institute of Mental Health's Psychoactive Drug Screening Program (Contract # HHSN-271-2008-00025-C) for screening data. Reference: Besnard et al.
(§2) Procedures: https://pdsp.unc.edu/pdspweb/content/UNC-CH%20Protocol%20Book.pdf […]
(§3) nucleosides were found at the following sites (human unless noted): 5HT1A, 5HT1B, 5HT1D, […]
(§4) β3, BZP rat brain site, D1, D2, D3, D4, D5, GABAA, H1, H2, H3, H4, M1, M2, M5, δ-opioid receptor (DOR), κ-opioid receptor (KOR), μ-opioid receptor (MOR), σ1, σ2, DAT, NET, SERT. Ki values […]
(§5) Compound # PDSP # Receptor LogKi Ki (nM)

D5 = target: T3, D5 (Homo sapiens, UniProt P21918); assay: PDSP binding assay, D5; conditions: PDSP, mean, n = 2; read-out: Ki, D5
T3 construct: NIMH Psychoactive Drug Screening Program (PDSP)
T3 sequence (P21918 whole entry): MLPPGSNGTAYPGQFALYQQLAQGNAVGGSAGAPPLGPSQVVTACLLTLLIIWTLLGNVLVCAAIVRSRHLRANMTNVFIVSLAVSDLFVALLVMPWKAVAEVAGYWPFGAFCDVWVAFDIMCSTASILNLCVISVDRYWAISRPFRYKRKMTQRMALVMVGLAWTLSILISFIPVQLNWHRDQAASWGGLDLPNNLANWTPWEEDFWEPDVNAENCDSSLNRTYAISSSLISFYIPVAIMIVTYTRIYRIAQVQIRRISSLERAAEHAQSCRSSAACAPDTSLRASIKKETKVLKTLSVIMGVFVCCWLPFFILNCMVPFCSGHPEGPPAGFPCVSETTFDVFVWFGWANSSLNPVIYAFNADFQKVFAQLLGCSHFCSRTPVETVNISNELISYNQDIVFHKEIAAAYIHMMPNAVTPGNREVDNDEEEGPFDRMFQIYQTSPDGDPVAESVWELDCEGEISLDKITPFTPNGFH
From the text: as §1, §2, §3, §4, §5

[1] = system: 45 target sites (receptors, channels, and transporters); assay: PDSP off-target binding screen at 45 target sites; set-up: species or system human; conditions: PDSP binding assays
From the text: as §1, §2, §3, §4, §5

HeLa cells = assay: MTT cell viability assay, HeLa cells; assay type: cell-based, human; conditions: 12 h, MTT
Procedure: (§6) The 1321N1 astrocytoma (hP2Y6R-overexpressing) and HeLa (non-transfected) cell lines were cultured in Dulbecco’s modified Eagle’s medium (DMEM, HyClone, Logan, UT, USA) supplemented with 5% heat-inactivated fetal bovine serum (FBS, HyClone, UT, USA), 100 U/mL penicillin, and 100 µg/mL streptomycin in 5% CO2 at 37 °C. The cell viability was determined using an MTT kit (Sigma, St. Louis, MO, USA) according to the manufacturer’s instructions. Briefly, 1 × 10^4 cells were seeded in triplicate in 96-well plates. The hP2Y6R-astrocytoma and HeLa cells were treated with a P2Y6R agonist and antagonists at a range of concentrations and incubated for 12 h. The cell viability was measured at 490 nm using a SpectraMax-M5 Spectrometer (Molecular Devices, San Jose, CA, USA).

[2] = system: hP2Y6R-1321N1 human astrocytoma cells; assay: MTT cell viability assay, hP2Y6R-1321N1 astrocytoma cells; assay type: cell-based; conditions: P2Y6R-astrocytoma, 12 h, MTT
Procedure: as §6

hP2Y14R = target: T4, hP2Y14R (Homo sapiens, UniProt Q15391); set-up: method as in PMID 28527783, PMID 23235874; conditions: previous members of the series; ref [29],[43]; cited from earlier work
T4 construct: expressed in transfected cells
T4 sequence (Q15391 1-338): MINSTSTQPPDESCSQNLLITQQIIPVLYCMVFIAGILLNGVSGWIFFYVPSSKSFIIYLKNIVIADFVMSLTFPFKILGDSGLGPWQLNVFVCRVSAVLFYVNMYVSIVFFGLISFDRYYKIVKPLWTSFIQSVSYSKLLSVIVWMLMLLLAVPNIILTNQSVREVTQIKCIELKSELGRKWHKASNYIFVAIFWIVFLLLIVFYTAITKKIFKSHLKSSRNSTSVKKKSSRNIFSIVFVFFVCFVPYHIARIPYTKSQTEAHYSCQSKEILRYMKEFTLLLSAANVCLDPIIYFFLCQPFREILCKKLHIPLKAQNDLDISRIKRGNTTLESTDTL

other P2YRs = conditions: at high µM concentrations; ref [29],[43]; cited from earlier work
α2B = target: T5, α2B (Homo sapiens, UniProt P18089); assay: PDSP binding assay, α2B; conditions: mean, n = 2
T5 construct: NIMH Psychoactive Drug Screening Program (PDSP)
T5 sequence (P18089 1-450): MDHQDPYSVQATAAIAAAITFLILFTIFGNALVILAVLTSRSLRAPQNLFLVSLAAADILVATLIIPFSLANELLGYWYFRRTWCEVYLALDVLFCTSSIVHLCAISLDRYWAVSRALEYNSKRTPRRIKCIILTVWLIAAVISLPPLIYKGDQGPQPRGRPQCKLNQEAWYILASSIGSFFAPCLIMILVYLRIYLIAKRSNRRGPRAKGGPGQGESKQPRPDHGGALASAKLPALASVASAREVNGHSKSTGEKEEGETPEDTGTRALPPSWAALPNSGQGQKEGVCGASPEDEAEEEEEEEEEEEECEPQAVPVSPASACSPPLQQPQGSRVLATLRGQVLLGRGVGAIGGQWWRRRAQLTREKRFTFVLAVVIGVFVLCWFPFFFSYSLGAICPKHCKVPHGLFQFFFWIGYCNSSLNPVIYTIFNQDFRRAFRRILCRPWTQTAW
From the text: as §1, §2, §3, §4, §5

5-HT1D = target: T6, 5-HT1D (Homo sapiens, UniProt P28221); assay: PDSP binding assay, 5-HT1D; conditions: PDSP, mean, n = 2; read-out: Ki, 5-HT1D
T6 construct: NIMH Psychoactive Drug Screening Program (PDSP)
T6 sequence (P28221 whole entry): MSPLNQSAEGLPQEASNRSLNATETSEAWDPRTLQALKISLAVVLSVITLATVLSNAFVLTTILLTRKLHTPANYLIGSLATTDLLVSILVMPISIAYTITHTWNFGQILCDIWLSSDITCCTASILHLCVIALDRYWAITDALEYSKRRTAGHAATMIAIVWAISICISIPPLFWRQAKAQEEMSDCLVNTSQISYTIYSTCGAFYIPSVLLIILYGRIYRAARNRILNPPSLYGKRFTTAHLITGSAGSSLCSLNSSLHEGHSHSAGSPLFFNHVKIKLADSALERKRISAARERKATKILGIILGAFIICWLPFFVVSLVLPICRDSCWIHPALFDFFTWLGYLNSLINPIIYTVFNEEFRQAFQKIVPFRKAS
From the text: as §1, §2, §3, §4, §5

[3] = read-out: IC50, hP2Y6R (Mean ± SEM)

IC50 (hP2Y6R; [3]): 20 to 30 µM and 34.8 µM
SMILES: NCCCCCCCCC#Cc1cccc2c1OC(C(F)(F)F)C([N+](=O)[O-])=C2 (stereo not shown) [Compound 40]

IC50 (hP2Y6R; [3]): 17.3 ± 5.2 µM | off-target interactions at 45 target sites [1]: only two weak interactions | Ki (α2A): 3.5 µM
SMILES: CC(C)(C)C(=O)NCCCCCCCC#Cc1ccc2c(c1)C=C([N+](=O)[O-])C(C(F)(F)F)O2 (stereo not shown) [Compound 31]

IC50 (hP2Y6R; [3]): 1.19 ± 0.25 µM | Ki (α2A): 0.75 µM | Ki (α2B): 1.7 µM | Ki (5-HT1D): 4.8 µM
SMILES: CC(C)(C)OC(=O)NCCCCCC#Cc1ccc2c(c1)C=C([N+](=O)[O-])C(C(F)(F)F)O2 (stereo not shown) [Compound 26]

IC50 (hP2Y6R; [3]): 5.39 ± 1.49 µM
SMILES: NCCCCC#Cc1ccc2c(c1)C=C([N+](=O)[O-])C(C(F)(F)F)O2 (stereo not shown) [Compound 25]

IC50 (hP2Y6R; [3]): 13 ± 3.9 µM
SMILES: NCCCCCCCC#Cc1cccc2c1OC(C(F)(F)F)C([N+](=O)[O-])=C2 (stereo not shown) [Compound 38]

IC50 (hP2Y6R; [3]): 10.5 ± 6.5 µM
SMILES: CC(C)(C)OC(=O)NCCCCCCC#Cc1ccc2c(c1)C=C([N+](=O)[O-])C(C(F)(F)F)O2 (stereo not shown) [Compound 28]

IC50 (hP2Y6R; [3]): 63.3 ± 30 µM
SMILES: O=C(O)CCOCCOCCOCCOCC#Cc1ccc2c(c1)C=C([N+](=O)[O-])C(C(F)(F)F)O2 (stereo not shown) [Compound 35]

Continued, compound first:

SMILES: CC(C)(C)OC(=O)NCCC#Cc1ccc2c(c1)C=C([N+](=O)[O-])C(C(F)(F)F)O2 (stereo not shown) [Compound 20]
IC50 (hP2Y6R; [3]): 0.587 ± 0.087 µM | Ki (α2A): 1.6 µM | Ki (D5): 4.4 µM

SMILES: CC(C)(C)n1nc(-c2nc3cc(Cl)ccc3[nH]2)cc1-c1ccco1 [Compound 4, reference compound]
inhibition at 100 µM (hP2Y6R; 1321-N1, at 100 µM): 18.9 ± 8.5% | IC50 (hP2Y6R; IC50, hP2Y6R (Mean ± SEM)): > 100 µM

SMILES: O=[N+]([O-])C1=Cc2cc(F)ccc2OC1C(F)(F)F (stereo not shown) [MRS4830, 6-fluoro-3-nitro-2-(trifluoromethyl)-2H-chromene]
% survival (HeLa cells; 0.1 µM): 94% | % survival (HeLa cells; 0.5 µM): 91% | % survival (HeLa cells; 1 µM): 93% | % survival (HeLa cells; 5 µM): 87% | % survival (HeLa cells; 10 µM): 83% | % survival ([2]; 0.1 µM): 100% | % survival ([2]; 0.5 µM): 102% | % survival ([2]; 1 µM): 101% | % survival ([2]; 5 µM): 96% | % survival ([2]; 10 µM): 89%

SMILES: O=[N+]([O-])C1=Cc2ccccc2OC1C(F)(F)F (stereo not shown) [Compound 2a, reference compound]
IC50 (hP2Y6R; [3]): 2.91 ± 1.21 µM | hP2Y14R binding (hP2Y14R): inactive | inhibition at most other P2YRs (other P2YRs): minor

SMILES: NCCC#Cc1ccc2c(c1)C=C([N+](=O)[O-])C(C(F)(F)F)O2 (stereo not shown) [Compound 21]
IC50 (hP2Y6R; [3]): 22.6 ± 9.3 µM

SMILES: O=[N+]([O-])C1=Cc2cc(C#Cc3ccc(O)cc3)ccc2OC1C(F)(F)F (stereo not shown) [Compound 15]
hP2Y14R binding (hP2Y14R): inactive

SMILES: O=[N+]([O-])C1=Cc2cc(C#Cc3ccc(CO)cc3)ccc2OC1C(F)(F)F (stereo not shown) [Compound 16]
hP2Y14R binding (hP2Y14R): inactive

SMILES: CC[Si](C#Cc1cccc2c1OC(C(F)(F)F)C([N+](=O)[O-])=C2)(CC)CC (stereo not shown) [Compound 14]
inhibition at most other P2YRs (other P2YRs): minor
